From patent US20130225508A1, “PEPTIDE CAPABLE OF BINDING TO IMMUNOGLOBULIN” (priority 2010, published 2013) come the findings set out here.

For one assay, the system named is IL-1β in plasma. In words: IL-1β in plasma of adjuvant arthritis rats (ELISA). The settings on record: day 21 post-adjuvant. Type of assay: in vivo, rat. Here is the method:
TNF-α and IL-1β in plasma were measured in a double-point method using the TNF-α ELISA kit (Lbis® TNF-α-rat) and the IL-1β ELISA kit (Quantikine® Rat IL-1β/IL-1F2).
On day 21 post-adjuvant, the animals were subjected to autopsy, and plasma was prepared to measure IL-1β and TIN-α concentrations in plasma. In all the groups for which measurements were made, the concentration of TNF-α was below the detection limit (8 pg/mL).
A general note: An ELISA detects its analyte on a solid surface through an enzyme-linked reagent.

Assay [1] relates to monoclonal antibody cocktail-induced arthritis. The experiment in a line: Mice monoclonal antibody cocktail-induced arthritis model. The format is in vivo, Mice (BALB/c Cr Slc). The protocol: 1-1 Mice (BALB/c Cr Slc (SPF)) were used to examine arthritis suppressing effects of peptides of the present invention on monoclonal antibody cocktail-induced arthritis. Mice were fed normal chow and allowed to acclimate for 6 days before used in experiments.
Arthritis was caused by intravenous administration of 2 mg/animal of an arthritis-inducing monoclonal antibody cocktail and three days later, intraperitoneal administration of 50 μg/animal of lipopolysaccharide (LPS). Peptides R1 and R9 each were intraperitoneally administered at a dose of 10 mg/kg once a day from the day following the LPS administration (day 4) to day 14. Peptide SP4 and the variant of peptide SP4 composed of the corresponding D-amino acids (except for glycine) each were intraperitoneally administered at a dose of 10 or 100 mg/kg once a day from the day following the LPS administration (day 4) to day 14. […] A control group was given physiological saline at 10 mL/kg once a day from day 4.
To forty 7-week-old mice, the arthritis-inducing monoclonal antibody cocktail was intravenously administered at a dose of 2 mg/animal on day 0, and LPS was intraperitoneally administered at a dose of 50 μg/animal on day 3.
[…] As a control, physiological saline was intraperitoneally administered once a day from day 4, and the volume of administration was 10 ml/kg. […] Needles ([…]; Terumo) and syringes (1.0-ml capacity; Terumo) were used for administration.
Observation of clinical score was performed on even days from day 0 to day 14 as follows. The total score for the extremities was set to a maximum of 12. Visual observation of swelling of the legs was performed.
0: normal joint 1: slight inflammation and redness 2: serious erythema and swelling over the whole limb and preventing the use of the limb 3: deformation of the limb or joint accompanied by ankylosis, joint stiffness, loss of function
Results of examinations are expressed by mean value±standard error and were analyzed using EXSAS (Version 7.1.6, Arm Systex Co., Ltd.). Clinical scores were subjected to Wilcoxon's test. Quantitative data, such as body weights and leg volumes, were subjected to Bartlett's test, followed by Dunnett's multiple comparison test if the variance was uniform or by Steel's multiple comparison test if the variance was not uniform. The level of significance was set at 5% on both sides.

Setting [2] is: day 6, 0.15 mg/kg intraperitoneal once a day from day 4.
Setting [3] is: day 14, 0.15 mg/kg intraperitoneal once a day from day 4.

Structures are written as SMILES.

Consider `CN(Cc1cnc2nc(N)nc(N)c2n1)c1ccc(C(=O)N[C@@H](CCC(=O)O)C(=O)O)cc1` [Methotrexate], for which the “Concentrations of IL-1β in plasma” value in the assay on IL-1β in plasma (0.15 mg/kg oral from day 10) came to 22.6 ± 11.3 pg/mL; in the assay with IL-1β in plasma (0.15 mg/kg oral, pre-administered group) it was 18.4 ± 4.2 pg/mL. Besides, the hind-limb volume in assay [1] (day 0, 0.15 mg/kg intraperitoneal group) is given as 0.216 cm^3; in assay [1] (setting [2]), 0.381 cm^3; in assay [1] (day 8 (highest value), 0.15 mg/kg intraperitoneal once a day from day 4) it was 0.441 cm^3; in assay [1] (setting [3]), 0.356 cm^3. The “increasing rate of hind-limb volume (volume on day 0 = 100%)” value in assay [1] (setting [2]) is given as 176.2%; in assay [1] (day 8 (highest), 0.15 mg/kg intraperitoneal once a day from day 4), 204.2%; in assay [1] (setting [3]), 165.4%. For the same compound, the clinical score in assay [1] (day 12, 0.15 mg/kg intraperitoneal once a day from day 4) turned out to be 8.2±0.9; in assay [1] (setting [3]) it was 8.6±0.9.
